The target of series [1] is BclXL. Particulars: cited from earlier work.
Series [2] deals with HEK293T cells. The series is classed as cell-based. Conditions: 10 µM A-1155463. The source says: drug controlled switches. […]
drug competition assay. This assay is designed to test if the drug of interest can specifically disrupt the interaction between LD3 and BclXL/Bcl2. The drug-receptors (Bcl2, BclXL) are immobilized on the different channels of the sensor chip, then the binding sites are saturated with LD3. While the flux of A-1155463 (red) flows through the sensor chip, the loss of signal is used to monitor the dissociation of the protein complex. b) Drug effects on reporter protein expression of HEK293T cells. HEK293T cells were transfected with a plasmid for constitutive SEAP production and incubated with indicated drugs for 24 hours. SEAP quantifications were performed to measure the protein production and WST-8 was used to test the cell proliferation. Each bar represents the mean of six biological replicates ± s.d., overlaid with a scatter dot plot of the original data points. […]
was added after 24 hours of drug incubation, and measured for absorbance at 450 nm 4 hours later. […]
production of HEK293T cells. […] SEAP quantifications were performed to measure the protein production and WST-8 was used to test the cell proliferation. For cell proliferation assay, WST-8 was added after 24 hours of drug incubation, and measured its absorbance at 450 nm 4 hours later. […]
ranging from 1 pM to 1 µM were added 12 hours post-transfection, then SEAP was measured 24 hours […]

In general, Kd refers to the free concentration of one partner at which half of the binding sites on the other are occupied at equilibrium, for simple one-to-one binding. With `CN(C)CC#Cc1ccc(OCCCc2sc(N3CCc4cccc(C(=O)Nc5nc6ccccc6s5)c4C3)nc2C(=O)O)c(F)c1` [A-1155463], the Kd in series [1] was below 0.01 nM. In series [2], the “effect on cell survival” value is “does not perturb” and the “effect on reporter gene expression” value is given as “does not perturb”.

The values are drawn from publication PMC11062894, “Protein-based bandpass filters for controlling cellular signaling with chemical inputs” (Nature Chemical Biology, 2023).
